Assay results published in publication PMC9499525, “Tissue-restricted inhibition of mTOR using chemical genetics” (Proceedings of the National Academy of Sciences of the …, 2022).

Tests used:
[1] = molecular target: T1, FKBP12-HA (wild-type) / GST-mTOR FRB domain ternary complex (Homo sapiens, UniProt P42345+P62942); assay: TR-FRET ternary complex formation, wild-type FKBP12 with mTOR FRB; format: binding; settings: wild-type FKBP12 + mTOR FRB, n = 3, read-out: EC50 of ternary complex induction, wild-type FKBP12
T1 construct: recombinant HA-tagged wild-type or V55G mutant FKBP12 with GST-tagged mTOR FRB domain; 8xHis (cleaved yes); made in house; host or cells: E. coli BL21 (DE3) for FKBP12
T1 sequence (P62942 whole entry, the tested form may be a part): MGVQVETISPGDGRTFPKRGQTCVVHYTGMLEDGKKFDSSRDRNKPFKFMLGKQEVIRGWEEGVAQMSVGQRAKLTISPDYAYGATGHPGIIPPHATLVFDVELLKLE
T1 sequence (P42345 2012-2144 limits assumed): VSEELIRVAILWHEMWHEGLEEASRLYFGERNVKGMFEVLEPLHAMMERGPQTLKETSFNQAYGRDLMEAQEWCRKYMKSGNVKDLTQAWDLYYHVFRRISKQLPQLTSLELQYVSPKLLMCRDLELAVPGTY
Experimental: TR-FRET assay was performed using recommended conditions from Cisbio with slight modifications. FKBP12-HA, FKBP12 V55G-HA, and GST-mTORFRB recombinant proteins were each diluted to 5 nM in assay buffer (20 mM HEPES pH 7.5, 150 mM NaCl, 0.05% Tween-20, 0.1% bovine serum albumin [BSA], 0.5 mM dithiothreitol [DTT]). Anti-GST-Tb (Cisbio) and Anti-HA-XL665 (Cisbio) were diluted to 0.625 µg/mL and 5 µg/mL, respectively, in assay buffer. Rapa* compounds and FK506 were diluted to 50 µM and rapamycin to 5 µM in assay buffer containing 5% DMSO, and threefold serial dilution series were made from these solutions. […] Time-resolved fluorescence was read on a Tecan Spark 20M plate reader with the following parameters: Lag time: 60 µs; Integration time: 500 µs; Read A: Excitation filter 320 ([25]) nm, Emission filter 610 ([25]) nm, Gain 130; Read B: Excitation filter 320 ([25]) nm, Emission filter 665 ([8]) nm, Gain 165. […]
Human FKBP12 coding sequence was cloned a pET-47b bacterial expression vector using Gibson assembly and a C-terminal HA-tag was added by QuickChange PCR. FKBP12 proteins were expressed as 8xHis fusions in E. coli BL21 (DE3) cells. […]
PAMPA was performed by Quintara Discovery as described previously (2). Compounds were analyzed at 100 µM in PBS and measured using liquid chromatography-mass spectrometry (LC-MS) after 5 hours. […]

[2] = test system: Drosophila larvae (w1118 control and FKBP12 V55G transgenic); assay: Drosophila larval development (pupae 9 d after egg laying); format: in vivo
Experimental: All Drosophila stocks and crosses were maintained on standard cornmeal-molasses food at 25 °C using a 12-h light/dark cycle. To generate UAS-FKBP12 V55G-HA transgenic lines, human FKBP12 V55G-HA ORF was cloned into a pUAST-attB vector between EcoR-I and Xho-I restriction sites. This construct was then integrated into an attB site using phiC31 integrase with the assistance of Rainbow Transgenic Flies, Inc. The driver stocks da-GAL4 (ubiquitous), elav-GAL4 and nSyb-GAL4 (neuronal-specific), Mef2-GAL4 and mhc-GAL4 (musculature), and 2–286-GAL4 and phm-GAL4 (ring-gland-specific) were obtained from Bloomington Drosophila Stock Center. The crossing schemes used in this study are depicted in SI Appendix, Fig. S11. For rapamycin or Rapa*3Z related experiments, fly food was prepared freshly 24 h before each experiment.
Fly food containing ethanol vehicle was used as control. […] Three biological replicates were used for each experiment. Data were analyzed using Prism 9.0 (GraphPad).

## CCO/N=C1/C[C@@H]([C@H](C)C[C@@H]2CC[C@@H](O)[C@H](OC)C2)OC(=O)[C@@H]2CCCCN2C(=O)C(=O)[C@]2(O)O[C@@H](CC[C@H]2C)C[C@H](OC)/C(C)=C/C=C/C=C/[C@@H](C)C[C@@H](C)C(=O)[C@H](OC)[C@H](O)/C(C)=C/[C@H]1C [Rapa*-3Z]
[1]
  EC50: 639 nM
15 days, 100 µM
  Stability under experimental conditions (fly food, room temperature): at least 15 d
Storage under experimental conditions, wild-type larvae readout
  Decomposition to rapamycin after prolonged storage: does not decompose to rapamycin
[2]; 2-286-GAL4, 100 µM, 9 d
  Larval-to-pupal transition, FKBP12 V55G in ring gland (independent driver): nearly eliminated the larval-to-pupal transition
[2]; FKBP12 V55G animals (ubiquitous da-GAL4), in food, 9 d after egg laying
  Dose necessary for complete inhibition of larval development: 100 µM
[2]; Mef2-GAL4 and elav-GAL4, 100 µM, 9 d
  Larval-to-pupal transition, FKBP12 V55G in musculature and nervous system (independent drivers): significant, but lesser, inhibition
[2]; da-GAL4 > FKBP12 V55G, 100 µM
  Effect on larval development, ubiquitous FKBP12 V55G expression: potently inhibited larval development
[2]; mhc-GAL4 and nSyb-GAL4, 100 µM, 9 d after egg laying
  Pupal formation, FKBP12 V55G in musculature and nervous system: similar, but less severe, inhibition of pupal formation
[2]; phm-GAL4, 100 µM, 9 d after egg laying
  Pupal formation, FKBP12 V55G in ring gland: failed to pupate
[2]; w1118, 300 and 400 µM, 14 days after egg laying
  Effect on larval development in control flies at 300 and 400 µM: no influence on larval development
[2]; wild-type (w1118) larvae, compound in food
  Effect on larval development in wild-type animals: no effect
